Where two headings read alike, the source gives them in different places.
Columns and labels:
myc-h5HT1a and 3HA-hCB1 [1] = type: cell-based, human; conditions: 5HT1a/CB1 cell line
3HA-hCB1 = 3HA-hCB1 (Homo sapiens, UniProt P21554); experiment: CAMYEL BRET cAMP signalling assay, HEK cells expressing CB1 alone; type: cell-based; conditions: for cAMP response in the cell line expressing only CB1: CB1-alone HEK line, 5 μM forskolin; for Emax (% inhib of Fsk), ± SEM / pEC50 ± SEM: CB1 cell line
Long Evans rats = experiment: Plethysmography and telemetry in rats
C57BL/6 mice = experiment: THC drug discrimination in mice; type: in vivo, mouse; conditions: for Effect on response rates compared to vehicle: alone or in combination with 3 mg/kg pFPP, either sex; for AMB-FUBINACA ED50 (95% confidence limits), + Saline: with saline
5HT1a = conditions: ref Scherman et al., 1988; cited from earlier work
[2] = AMB-FUBINACA metabolism in rat liver microsomes; type: in vitro ADME; conditions: pFPP 0.59, 1.18, 2.36 μg/ml
[3] = AMB-FUBINACA metabolism in human liver microsomes; type: in vitro ADME; conditions: pFPP 0.59, 1.18, 2.36 μg/ml
myc-h5HT1a and 3HA-hCB1 [4] = biological target: T1, myc-h5HT1a and 3HA-hCB1 (Homo sapiens, UniProt P08908); type: cell-based; conditions: 5HT1a/CB1 cell line, in the presence of 31.6 nM 8OH-DPAT
T1 sequence (P08908 1-422): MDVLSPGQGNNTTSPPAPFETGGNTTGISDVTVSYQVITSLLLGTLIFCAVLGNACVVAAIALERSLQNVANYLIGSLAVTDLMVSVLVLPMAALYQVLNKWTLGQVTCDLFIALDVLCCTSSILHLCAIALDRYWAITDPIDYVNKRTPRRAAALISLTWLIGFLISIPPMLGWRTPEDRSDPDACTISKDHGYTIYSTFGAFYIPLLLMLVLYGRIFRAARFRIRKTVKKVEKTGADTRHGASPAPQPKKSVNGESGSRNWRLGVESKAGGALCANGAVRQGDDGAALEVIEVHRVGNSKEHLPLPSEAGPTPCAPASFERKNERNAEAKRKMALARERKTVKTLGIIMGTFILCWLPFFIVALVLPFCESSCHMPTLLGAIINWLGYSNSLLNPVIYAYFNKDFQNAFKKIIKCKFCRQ

myc-h5HT1a = biological target: T2, myc-h5HT1a (Homo sapiens, UniProt P08908); experiment: CAMYEL BRET cAMP signalling assay, HEK cells expressing 5HT1a alone; type: cell-based; conditions: 5HT1a-alone cell line, in the presence of 31.6 nM 8OH-DPAT
T2 sequence (P08908 1-422): T1 sequence (P08908 1-422)

[5] = inhibition of 5 μM forskolin-induced cAMP, drug alone

3HA-hCB1, sequence (P21554 whole entry): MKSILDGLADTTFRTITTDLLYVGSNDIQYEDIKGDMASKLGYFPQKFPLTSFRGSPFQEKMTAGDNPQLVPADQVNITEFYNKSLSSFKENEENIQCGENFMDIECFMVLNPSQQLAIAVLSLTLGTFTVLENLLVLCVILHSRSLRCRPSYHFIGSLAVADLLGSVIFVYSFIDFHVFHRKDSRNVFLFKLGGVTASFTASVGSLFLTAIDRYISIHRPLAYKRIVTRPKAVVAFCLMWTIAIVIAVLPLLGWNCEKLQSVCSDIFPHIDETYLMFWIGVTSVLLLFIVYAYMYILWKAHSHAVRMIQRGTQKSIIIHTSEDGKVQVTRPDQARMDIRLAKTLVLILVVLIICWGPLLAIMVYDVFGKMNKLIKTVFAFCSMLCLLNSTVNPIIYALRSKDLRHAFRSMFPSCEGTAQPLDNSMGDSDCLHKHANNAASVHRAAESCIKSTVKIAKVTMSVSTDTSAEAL

SMILES: CCCN(CCC)C1CCc2cccc(O)c2C1 (centres unmarked) [8OH-DPAT, 8-hydroxy DPAT]
- Emax (% inhib of Fsk), ± SEM (myc-h5HT1a and 3HA-hCB1 [1]; drug alone): 66.6 ± 1.3 % inhib of Fsk
- pEC50 ± SEM (myc-h5HT1a and 3HA-hCB1 [1]; [5]): 8.39 ± 0.21
- cAMP response in the cell line expressing only CB1 (3HA-hCB1): without showing activity

SMILES: COC(=O)[C@@H](NC(=O)c1nn(Cc2ccc(F)cc2)c2ccccc12)C(C)C [AMB-FUBINACA]
- Duration of decreases in heart rate (Long Evans rats; 0.3 mg/kg AMB-FUBINACA alone): approximately half of the post-injection session
- Effect on respiratory minute volume (Long Evans rats; 0.3 mg/kg AMB-FUBINACA alone, early in the session): transient decrease
- Time until which significant hypothermia continued (Long Evans rats; 0.3 mg/kg AMB-FUBINACA combined with 10 mg/kg pFPP): 165 min
- Time after injection by which hypothermic effect dissipated (Long Evans rats; 0.3 mg/kg AMB-FUBINACA i.p. alone): ≤ 135 min
- Duration of significant decreases in heart rate (Long Evans rats; 1 mg/kg AMB-FUBINACA alone): during most of the post-injection session
- Effect on respiratory minute volume (Long Evans rats; 1 mg/kg AMB-FUBINACA alone and with 10 mg/kg pFPP, part or all of the post-injection session): significantly decreased minute volume
- Duration of significant hypothermia (Long Evans rats; 1 mg/kg AMB-FUBINACA combined with 10 mg/kg pFPP): throughout the session
- Duration of hypothermic effect (Long Evans rats; 1 mg/kg AMB-FUBINACA i.p. alone): endured for the entire 240-min post-injection measurement period
- Effect on temperature (Long Evans rats; 0.03 and 0.1 mg/kg AMB-FUBINACA i.p.): no significant effect
- Onset of significant hypothermic effect post-injection (Long Evans rats; 0.3 and 1 mg/kg AMB-FUBINACA combined with 10 mg/kg pFPP, vs pFPP alone): 75 min
- Effect on temperature vs vehicle/saline (Long Evans rats; 0.3 and 1 mg/kg AMB-FUBINACA i.p. alone, one or more post-injection time points): produced hypothermia
- Effect on heart rate (Long Evans rats; 0.3 and 1 mg/kg AMB-FUBINACA i.p., alone or with 10 mg/kg pFPP): decreased heart rate
- Emax (% inhib of Fsk), ± SEM (myc-h5HT1a and 3HA-hCB1 [1]; + WAY100635 (1 μM)): 59.4 ± 9.17 % inhib of Fsk
- pEC50 ± SEM (myc-h5HT1a and 3HA-hCB1 [1]; + WAY100635 (1 μM)): 9.11 ± 0.16
- Emax (% inhib of Fsk), ± SEM (myc-h5HT1a and 3HA-hCB1 [1]; + pFPP (31.6 μM)): 64.9 ± 3.5 % inhib of Fsk
- pEC50 ± SEM (myc-h5HT1a and 3HA-hCB1 [1]; + pFPP (31.6 μM)): 9.39 ± 0.11
- Emax (% inhib of Fsk), ± SEM (myc-h5HT1a and 3HA-hCB1 [1]; drug alone): 61.0 ± 1.7 % inhib of Fsk
- pEC50 ± SEM (myc-h5HT1a and 3HA-hCB1 [1]; [5]): 9.21 ± 0.14
- Effect on response rates compared to vehicle (C57BL/6 mice): neither cannabinoid (alone or in combination with pFPP) significantly affected response rates
- Potency relative to THC in drug discrimination (C57BL/6 mice; both sexes, more potent than THC): 49-70 fold
- AMB-FUBINACA ED50 (95% confidence limits), + Saline (C57BL/6 mice; female mice, i.p.): 0.03 mg/kg (0.006-0.14)
- AMB-FUBINACA ED50 (95% confidence limits), + Saline (C57BL/6 mice; male mice, i.p.): 0.03 mg/kg (0.007-0.14)
- Emax (% inhib of Fsk), ± SEM (3HA-hCB1; + WAY100635 (1 μM)): 55.7 ± 5.78 % inhib of Fsk
- pEC50 ± SEM (3HA-hCB1; + WAY100635 (1 μM)): 9.65 ± 0.14
- Emax (% inhib of Fsk), ± SEM (3HA-hCB1; + pFPP (31.6 μM)): 57.9 ± 2.33 % inhib of Fsk
- pEC50 ± SEM (3HA-hCB1; + pFPP (31.6 μM)): 9.70 ± 0.16
- Emax (% inhib of Fsk), ± SEM (3HA-hCB1; drug alone): 60.8 ± 1.7 % inhib of Fsk
- pEC50 ± SEM (3HA-hCB1; [5]): 9.56 ± 0.09

SMILES: CCCCCc1cc(O)c2c(c1)OC(C)(C)[C@@H]1CCC(C)=C[C@@H]21 [THC, Δ^9-tetrahydrocannabinol]
- Effect on response rates compared to vehicle (C57BL/6 mice): neither cannabinoid (alone or in combination with pFPP) significantly affected response rates
- THC ED50 (95% confidence limits), Alone (C57BL/6 mice; female mice, i.p., trained to discriminate 5.6 mg/kg THC from vehicle): 1.46 mg/kg (0.62-3.40)

SMILES: Fc1ccc(N2CCNCC2)cc1 [pFPP, para-fluorophenylpiperazine]
- previously reported affinity (pKi) (5HT1a): 6.52
- Effect on AMB-FUBINACA metabolism [2]: not altered by any concentration of pFPP
- Effect on AMB-FUBINACA metabolism [3]: not altered by any concentration of pFPP
- Effect on heart rate in comparison to vehicle (Long Evans rats; 10 mg/kg pFPP alone, i.p.): only early and transient decreases
- Effect on respiratory minute volume across the post-injection session (Long Evans rats; 10 mg/kg pFPP alone, i.p.): significant decrease
- Effect on temperature in comparison to vehicle (Long Evans rats; 10 mg/kg pFPP alone, i.p.): only early and transient decreases
- Effect of co-administration on duration of AMB-FUBINACA heart rate decreases (Long Evans rats; 10 mg/kg pFPP with 0.3 or 1 mg/kg AMB-FUBINACA): shortened the duration
- pEC50 ± SEM (myc-h5HT1a and 3HA-hCB1 [1]; [5]): ~5.20 ± 0.18^$
- Antagonism of cAMP inhibition by 8OH-DPAT (myc-h5HT1a and 3HA-hCB1 [4]): not observed to have any antagonist effect
- Cannabimimetic (THC-like discriminative stimulus) effects (C57BL/6 mice; 3 mg/kg pFPP by itself): did not produce cannabimimetic effects by itself
- Effect on potency of THC-like discriminative stimulus effects of THC or AMB-FUBINACA (C57BL/6 mice; 3 mg/kg pFPP co-administered): nor did it alter the potency
- Effect on response rates (C57BL/6 mice; 10 mg/kg pFPP alone, probe tests, data not shown): substantial decreases in response rates
- Antagonism of cAMP inhibition by 8OH-DPAT (myc-h5HT1a): not observed to have any antagonist effect
- cAMP response in the cell line expressing only CB1 (3HA-hCB1): no pFPP response was observed
